Literature values in paper PMC4274137 (HIV/AIDS (Auckland, N.Z.), 2014).
Like-named read-outs stand apart in the source and are kept apart here.

Assays:
HIV patients [1] = test system: HIV patients
HIV patients [2] = test system: HIV patients; remark: listed apart in the source
HIV patients [3] = conditions: Danish study
HIV patients [4] = conditions: HIV patients in France
HIV patients [5] = conditions: DAD study
[6] = HIV dyslipidemia, ezetimibe monotherapy or combined with statin

For CC(C)OC(=O)C(C)(C)Oc1ccc(C(=O)c2ccc(Cl)cc2)cc1 [Fenofibrate], the “efficacy in mixed dyslipidemia and hypertriglyceridemia” value (HIV dyslipidemia; people with HIV infection) is listed as “useful” and the safety (HIV patients [1]; people with HIV infection) is listed as “generally safe”.
In the case of C[C@H](Cn1cnc2c(N)ncnc21)OCP(=O)(O)O [tenofovir], the “high triglycerides and lipoatrophy (NRTI effect)” value (HIV patients [2]; compared with other NRTIs) is listed as “this effect is less seen” and the “estimated glomerular filtration rate (eGFR)” value (HIV patients [3]) is listed as “reduced estimated glomerular filtration rate”.
In the case of O=C1Nc2ccc(Cl)cc2[C@@](C#CC2CC2)(C(F)(F)F)O1 [efavirenz], the “total cholesterol and triglycerides” value (HIV patients [2]; HIV patients on NNRTIs) is given as “associated with increase in total cholesterol and triglycerides”.
In the case of O=C1[C@H](CC[C@H](O)c2ccc(F)cc2)[C@@H](c2ccc(O)cc2)N1c1ccc(F)cc1 [Ezetimibe], the lipid-lowering efficacy (HIV dyslipidemia; [6]) is given as “effective” and the safety (HIV patients [1]; [6]) is given as “safe”.
In the case of O=C(O)c1cccnc1 [Niacin], the “efficacy in improving lipid profile” value (HIV dyslipidemia; HIV patients, two studies) is given as “effective” and the safety (HIV patients [1]; HIV patients, two studies) is given as “safe”.
For Cc1cn([C@H]2C=C[C@@H](CO)O2)c(=O)[nH]c1=O [stavudine], the “risk factor for hypothyroidism” value (HIV patients [4]) is listed as “risk factors” and the “association of treatment with NAFLD” value (Asian patients with HIV) is listed as “not with HIV-related factors”.
For Nc1nc(NC2CC2)c2ncn([C@H]3C=C[C@@H](CO)C3)c2n1 [abacavir], the “risk of myocardial infarction” value (HIV patients [5]) is given as “associated with independent risk of myocardial infarction”.
In the case of Nc1ccn([C@H]2CC[C@@H](CO)O2)c(=O)n1 [zalcitabine], the “association of treatment with NAFLD” value (Asian patients with HIV) is given as “not with HIV-related factors”.
